A value given as a limit tells only on which side of the number the result lay.

T1 sequence (A0A9E9JN76 entry or part of it): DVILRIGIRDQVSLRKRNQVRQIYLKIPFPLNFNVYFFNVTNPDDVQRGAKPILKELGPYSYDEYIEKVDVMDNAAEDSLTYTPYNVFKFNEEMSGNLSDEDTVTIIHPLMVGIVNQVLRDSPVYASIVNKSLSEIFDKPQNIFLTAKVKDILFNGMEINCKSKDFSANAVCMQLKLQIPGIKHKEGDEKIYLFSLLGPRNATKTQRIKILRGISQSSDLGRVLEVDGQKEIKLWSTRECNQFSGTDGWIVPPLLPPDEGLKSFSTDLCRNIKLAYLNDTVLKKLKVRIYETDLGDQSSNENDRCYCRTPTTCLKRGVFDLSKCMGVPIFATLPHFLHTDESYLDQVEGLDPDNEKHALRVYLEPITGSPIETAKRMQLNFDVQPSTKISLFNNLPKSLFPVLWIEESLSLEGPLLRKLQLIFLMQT

One experiment deals with T1, CbuqSNMP1b (Cyrtotrachelus buqueti, UniProt A0A9E9JN76). As to the kind of experiment: Binding of 1-NPN to CbuqSNMP1b (fluorescence titration, Scatchard analysis). Particulars: 2 μM CbuqSNMP1b titrated with 2–40 μM 1-NPN; Scatchard plot; read-out: dissociation constant (Kd) of the CbuqSNMP1b/1-NPN complex. The procedure:
Binding affinities of CbuqSNMP1b to 14 volatiles (Table 1) emitted by female adults of C. buqueti were measured with the fluorescence competition binding assays using N-phenyl-1-naphthylamine (1-NPN) as the fluorescent probe. 1-NPN and all of the other chemicals (the purity being at least more than 96%) used in the binding assays were purchased from Aladdin Biochemical Technology Co., Ltd. (Shanghai, China). The Lumina fluorescence spectrophotometer (Thermo Fisher Scientific, Waltham, MA, USA) was used to perform fluorescence binding assays with a 1 cm light path quartz cuvette at room temperature. All the slit widths for both excitation and emission were 10 nm. The 1-NPN and all the other chemicals were dissolved in methanol (HPLC-grade) to a final concentration of 1 mM. The binding constant of 1-NPN was determined by titrating a 2 μM solution of the CbuqSNMP1b protein with aliquots of 2–40 μM 1-NPN concentrations. The binding of 1-NPN was measured at an excitation wavelength of 337 nm. The scanning range was 360–560 nm at each concentration and the maximum fluorescence intensities were plotted against the free ligand concentration. […]
On to `c1ccc(Nc2cccc3ccccc23)cc1` [1-NPN, N-phenyl-1-naphthylamine], for which the Kd is 13.3 µM.

A further experiment addresses T1, CbuqSNMP1b. The experiment can be described thus: Fluorescence competition binding assay with 1-NPN as fluorescent probe.
Conditions: not given
The procedure:
1-NPN and all of the other chemicals (the purity being at least more than 96%) used in the binding assays were purchased from Aladdin Biochemical Technology Co., Ltd. (Shanghai, China). The Lumina fluorescence spectrophotometer (Thermo Fisher Scientific, Waltham, MA, USA) was used to perform fluorescence binding assays with a 1 cm light path quartz cuvette at room temperature. All the slit widths for both excitation and emission were 10 nm. The 1-NPN and all the other chemicals were dissolved in methanol (HPLC-grade) to a final concentration of 1 mM. The binding constant of 1-NPN was determined by titrating a 2 μM solution of the CbuqSNMP1b protein with aliquots of 2–40 μM 1-NPN concentrations. The binding of 1-NPN was measured at an excitation wavelength of 337 nm. The scanning range was 360–560 nm at each concentration and the maximum fluorescence intensities were plotted against the free ligand concentration.
As for `C=C(C)[C@H]1CC=C(C)CC1` [(+)-Limonene], the IC50 (commonly the concentration needed to halve the response being measured) was greater than 50 µM.
`c1ccc2scnc2c1` [Benzothiazole]: the IC50 was 13.3 µM.
Same read-out and setting: the figure for `C[C@@H]1CC[C@H]2C(C)(C)[C@H]3C[C@@]12CC[C@@]3(C)O` [Cedrol] is greater than 50 µM; for `CCCCOC(=O)c1ccccc1C(=O)OCCCC` [Dibutyl phthalate] it is 10.4 µM.
Still for that read-out and setting: the figure for `Cc1cccc(C)c1` [M-xylene] is greater than 50 µM.
In the case of `Oc1ccccc1` [Phenol], the IC50 was found to be 24.1 µM.
`CC(C)=CCC/C(C)=C/CC/C(C)=C/CC/C=C(\C)CC/C=C(\C)CCC=C(C)C` [Squalene] gave an IC50 greater than 50 µM.
In turn, `C=Cc1ccccc1` [Styrene] had an IC50 greater than 50 µM.

The experiment is the same for the next values; noted with them: recombinant CbuqSNMP1b and 1-NPN both at 2 μM; displacement of 1-NPN; room temperature; read-out: IC50.
On to `CCCCCCCCC=O` [1-Nonanal], for which the IC50 was greater than 50 µM.
In the case of `CCCCCCCC(C)=O` [2-Nonanone], the IC50 is greater than 50 µM.
On the same count and under the same terms, the figure for `CCCCCCCCCC=O` [Decyl aldehyde] is greater than 50 µM; for `CCCCCC(=O)OCC` [Ethyl hexanoate] it is greater than 50 µM; for `CCCCCCCCCCCCCCCC(=O)OC` [Methyl hexadecanoate] it is greater than 50 µM.
As to `CCCC/C=C/C=C/C=O` [trans,trans-2,4-Nonadienal], the half-inhibitory concentration (IC50) was greater than 50 µM.
